Measurements as given in paper PMC9462851, “Redox-controlled reorganization and flavin strain within the ribonucleotide reductase R2b–NrdI complex monitored by serial femtosecond crystallography” (eLife, 2022).
Blank lines part the entries; values can stand above or below the molecule they belong to.

How the values were obtained:
[1] = biological target: T1, BcR2b–NrdI complex (BcR2bMnMn–NrdI) (Bacillus cereus, UniProt Q81G55+Q81G57); assay: serial femtosecond crystallography (XFEL), […] Å; type: binding; details: Mn(II)/Mn(II) R2b, room temperature
T1 construct: Untagged purification from E. coli BL21(DE3), plasmids pET22b-BcnrdI and pET22b-Bcr2b; NrdI 118 residues, 13,449 Da; R2b 322 residues, 37,017 Da, produced metal-free then Mn(II)-loaded; 1:1 complex, dimer of heterodimers
T1 sequence (Q81G57 1-119): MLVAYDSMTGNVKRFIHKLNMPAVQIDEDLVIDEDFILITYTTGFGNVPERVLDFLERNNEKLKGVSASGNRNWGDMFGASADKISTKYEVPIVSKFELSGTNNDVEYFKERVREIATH
T1 sequence (Q81G55 1-322): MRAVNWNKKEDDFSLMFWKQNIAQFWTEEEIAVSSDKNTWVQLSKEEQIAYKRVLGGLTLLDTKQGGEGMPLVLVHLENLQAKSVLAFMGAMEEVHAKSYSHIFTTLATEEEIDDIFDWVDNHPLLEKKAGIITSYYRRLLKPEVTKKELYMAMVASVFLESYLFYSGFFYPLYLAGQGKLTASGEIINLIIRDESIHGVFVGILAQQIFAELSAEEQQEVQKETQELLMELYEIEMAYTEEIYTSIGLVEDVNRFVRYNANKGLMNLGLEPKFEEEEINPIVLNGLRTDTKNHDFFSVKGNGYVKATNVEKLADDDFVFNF

[2] = biological target: Bacillus cereus ribonucleotide reductase class Ib R2 subunit (R2b), di-manganese form (Bacillus cereus); assay: crystal structure; serial femtosecond crystallography at an XFEL (LCLS MFX), room temperature, 2.0 Å; complex reconstituted in vitro by mixing 0.25 mM BcR2b (with 12 equivalents Mn(II)Cl2) and 0.25 mM BcNrdI in 50 mM Tris-HCl pH 7.5, 20°C; batch crystals with NrdI oxidized (7Z3D) or reduced in the crystal with dithionite to the hydroquinone (7Z3E)

Molecule: Cc1cc2nc3c(=O)[nH]c(=O)nc-3n(C[C@H](O)[C@H](O)[C@H](O)COP(=O)(O)O)c2cc1C [FMNox, flavin mononucleotide]
- serial femtosecond crystallography (XFEL), 2.0 Å ([1]; oxidized crystals grown aerobically, noncovalent FMN in NrdI at the R2b interface (R2b Phe17, Gln20)): The structure from these crystals is later referred to as BcR2bMnMn–NrdIox (PDB ID: 7Z3D)

Molecule: Cc1cc2c(cc1C)N(C[C@H](O)[C@H](O)[C@H](O)COP(=O)(O)O)c1[nH]c(=O)[nH]c(=O)c1N2 [FMNhq, hydroquinone flavin mononucleotide]
- serial femtosecond crystallography (XFEL), 2.0 Å ([1]; anaerobic, crystals reduced with sodium dithionite, noncovalent FMN in NrdI at the R2b interface): The corresponding structure is denoted BcR2bMnMn–NrdIhq (PDB ID: 7Z3E)

- stoichiometry N [2]: 1
B1: Bacillus cereus NrdI (flavoprotein with bound flavin mononucleotide) (natural protein)
chain: MLVAYDSMTGNVKRFIHKLNMPAVQIDEDLVIDEDFILITYTTGFGNVPERVLDFLERNNEKLKGVSASGNRNWGDMFGASADKISTKYEVPIVSKFELSGTNNDVEYFKERVREIAT
